Laboratory results as given in ChEMBL document CHEMBL5385901, “Drug repurposing of propafenone to discover novel anti-tumor agents by impairing homologous recombination to delay DNA damage recovery of rare disease conjunctival melanoma” (Eur J Med Chem, 2023).
The source made the active and inactive calls. No cut-off for these calls is given here.

What was measured:
[1] = Antiproliferative activity against human HL7702 cells assessed as cell growth inhibition incubated for 72 hrs by CCK8 assay; assay type: toxicity, cell-based; settings: HL7702 (L02) cells
CRMM-1 [2] = assay: Antiproliferative activity against human CRMM-1 cells assessed as cell growth inhibition incubated for 72 hrs by CCK8 assay; assay type: functional, cell-based; settings: CRMM-1, 72 h
[3] = Antiproliferative activity against human CM2005.1 cells assessed as cell growth inhibition incubated for 72 hrs by CCK8 assay; assay type: functional, cell-based; settings: CM2005.1, 72 h
CRMM-2 [4] = assay: Antiproliferative activity against human CRMM-2 cells assessed as cell growth inhibition incubated for 72 hrs by CCK8 assay; assay type: functional, cell-based; settings: CRMM-2, 72 h
[5] = Antiproliferative activity against human CM-AS16 cells assessed as cell growth inhibition incubated for 72 hrs by CCK8 assay; assay type: functional, cell-based; settings: CM-AS16, 72 h
[6] = Antiproliferative activity against human PIG1 cells assessed as cell growth inhibition incubated for 72 hrs by CCK8 assay; assay type: toxicity, cell-based
CRMM-1 [7] = assay: Inhibition of homologous recombination in human CRMM-1 cells at 10 uM incubated for 12 hrs by real-time PCR analysis; assay type: functional, cell-based
CRMM-1 [8] = assay: Antitumor activity against human CRMM-1 cells xenografted in immunodeficient NCG mouse assessed as tumor growth suppression at 10 mg/kg, po for 28 days administered five times per week relative to control; assay type: functional; settings: time 28 day
CRMM-1 [9] = assay: Antitumor activity against human CRMM-1 cells xenografted in immunodeficient NCG mouse assessed as mean tumor volume at 10 mg/kg, po for 28 days administered five times per week (reference value: 540 mm3); assay type: functional; settings: time 28 day
[10] = Toxicity in immunodeficient NCG mouse xenografted with human CRMM-1 cells assessed as pathomorphological change in liver at 10 mg/kg, po for 28 days administered five times per week by H and E staining based analysis; assay type: organism-based; settings: in vivo, 672 h, time 28 day
[11] = Toxicity in immunodeficient NCG mouse xenografted with human CRMM-1 cells assessed as pathomorphological change in kidney at 10 mg/kg, po for 28 days administered five times per week by H and E staining based analysis; assay type: organism-based; settings: in vivo, 672 h, time 28 day
[12] = Cytotoxicity against human CM2005.1 cells assessed as cell growth inhibition incubated for 72 hrs by CCK8 assay; assay type: functional, cell-based; settings: CM2005.1, 72 h
CM-AS16 [13] = assay: Effect on DNA repair genes in human CM-AS16 cells harboring BRAF mutation at 20 uM by GO enrichment analysis; assay type: functional, cell-based
[14] = Cytotoxicity against human CM-AS16 cells assessed as cell growth inhibition incubated for 72 hrs by CCK8 assay; assay type: functional, cell-based; settings: CM-AS16, 72 h
[15] = Inhibition of homologous recombination in human CRMM-1 cells at 10 uM incubated for 12 hrs by real-time PCR analysis relative to control; assay type: functional
CM-AS16 [16] = assay: Effect on Fanconi anemia pathway in human CM-AS16 cells harboring BRAF mutation at 20 uM by KEGG analysis; assay type: functional, cell-based
CRMM-1 [17] = assay: Induction of apoptosis in human CRMM-1 cells at 0.3 to 3 uM measured after 48 hrs by DAPI/Annexin-V-PE staining based flow cytometry; assay type: functional, cell-based; settings: dose 0.3-3 µM
CRMM-1 [18] = assay: Cytotoxicity against human CRMM-1 cells assessed as cell growth inhibition incubated for 72 hrs by CCK8 assay; assay type: functional, cell-based; settings: CRMM-1, 72 h
CRMM-1 [19] = assay: Inhibition of cell migration in human CRMM-1 cells assessed as migration rate at 3 uM measured after 72 hrs by wound healing assay (reference value: 70 %); assay type: functional; parameters: scale not given: the % may be the effect or the level left
CM-AS16 [20] = assay: Effect on DNA integrity checkpoint genes in human CM-AS16 cells harboring BRAF mutation at 20 uM by GO enrichment analysis; assay type: functional, cell-based
CRMM-1 [21] = assay: Induction of apoptosis in human CRMM-1 cells at 40 uM measured after 48 hrs by DAPI/Annexin-V-PE staining based flow cytometry relative to control; assay type: functional
CRMM-2 [22] = assay: Cytotoxicity against human CRMM-2 cells assessed as cell growth inhibition incubated for 72 hrs by CCK8 assay; assay type: functional, cell-based; settings: CRMM-2, 72 h
[23] = Cytotoxicity against human PIG1 cells at 20 uM incubated for 72 hrs by CCK8 assay relative to control; assay type: toxicity, cell-based; settings: read-out: INH

SMILES | IC50 at 72 h [1] | IC50 (CRMM-1 [2]) | IC50 [3] | IC50 (CRMM-2 [4]) | IC50 [5] | IC50 at 72 h [6] | inhibition (CRMM-1 [7]) | other results
CCCNCCCOc1cc2c(cc1C(=O)CCCc1ccccc1)OCCO2 | 27.7 µM | 5.5 µM | 11.6 µM | 8.8 µM | 4.4 µM | 15.4 µM | inactive | –
C=C(CCc1ccccc1)c1ccccc1OCC(O)CNCCC (stereo unspecified) | 14.8 µM | 6.3 µM | 9.1 µM | 9.5 µM | 4 µM | 16.1 µM | inactive | –
Cn1cnc2c(F)c(Nc3ccc(Br)cc3F)c(C(=O)NOCCO)cc21 [BINIMETINIB] | – | – | – | – | – | – | – | Activity (CRMM-1 [8]): 41%; Activity (CRMM-1 [9]): 270 mm3; Activity [10]: Non-Toxic; Activity [11]: Non-Toxic
CCCNCC(O)COc1ccccc1C(=O)CCc1ccccc1 (stereo unspecified) [PROPAFENONE] | 48.2 µM | 24.7 µM | 48.3 µM | 13.4 µM | 13.7 µM | 56 µM | – | IC50 [12]: 48.3 µM; Activity (CM-AS16 [13]): Active; IC50 [14]: 13.7 µM; inhibition at 10 µM [15]: 56.9%; Activity (CM-AS16 [16]): Active; Activity (CRMM-1 [17]): Active; IC50 (CRMM-1 [18]): 24.7 µM; Activity (CRMM-1 [19]): 58%; Activity (CM-AS16 [20]): Active; Activity (CRMM-1 [21]): 80%; IC50 (CRMM-2 [22]): 13.4 µM; cytotoxicity at 72 h, 20 µM [23]: 26%
